Test results reported in ChEMBL document CHEMBL5108079, “Therapeutic Activity of the Lansoprazole Metabolite 5-Hydroxy Lansoprazole Sulfide in Triple-Negative Breast Cancer by Inhibiting the Enoyl Reductase of Fatty Acid Synthase” (J Med Chem, 2022).
The source made the active and inactive calls. The rule behind the calls is not given here.

How the values were obtained:
[1] = tested on: MDA-MB-231; assay: Induction of DNA damage in human MDA-MB-231 cells assessed as decrease in PARP-1 mRNA level at 2.5 to 10 uM incubated for 72 hrs by RT-PCR analysis; assay type: functional, cell-based; conditions: dose 2.5-10 µM
[2] = tested on: MDA-MB-468; assay: Induction of DNA damage in human MDA-MB-468 cells assessed as inhibition of PARP-1 expression incubated for 72 hrs by Western blot analysis; assay type: functional, cell-based; conditions: dose 2.5-10 µM, DDE = dose-dependent effect
[3] = tested on: Mus musculus; assay: In vivo inhibition of […] in NSG mouse xenografted with human MDA-MB-231 cells assessed as reduction of PARP1 level in tumor at 100 mg/kg, ip administered once daily for 22 days by immunohistochemical analysis; assay type: functional, organism-based; conditions: time 22.0 day
[4] = tested on: MDA-MB-231; assay: Induction of DNA damage in human MDA-MB-231 cells nucleus assessed as increase in gamma-H2AX punctate staining at 10 uM by DAPI staining based confocal microscopic imaging analysis; assay type: functional, cell-based
[5] = tested on: MDA-MB-231; assay: Induction of apoptosis in human MDA-MB-231 cells assessed as increase in cleaved PARP1 level incubated for 72 hrs by Western blot analysis; assay type: functional, cell-based; conditions: dose 2.5-10 µM, DDE = dose-dependent effect
[6] = tested on: MDA-MB-231; assay: Effect on cell cycle distribution in human MDA-MB-231 cells assessed as accumulation of cells in sub-G1 phase at 10 uM incubated for 72 hrs by PI staining based flow cytometric analysis; assay type: functional
[7] = Toxicity in NSG mouse xenografted with human MDA-MB-231 cells assessed as effect on body weight at 100 mg/kg, ip administered once daily for 22 days; assay type: organism-based; conditions: in vivo, 528 h, time 22 day
[8] = tested on: MDA-MB-468; assay: Induction of apoptosis in human MDA-MB-468 cells at 20 uM incubated for 72 hrs by Annexin-V/PI staining based flow cytometric analysis; assay type: functional, cell-based
[9] = tested on: Mus musculus; assay: In vivo inhibition of […] in NSG mouse xenografted with human MDA-MB-231 cells assessed as increase in gamma-H2AX level in tumor at 100 mg/kg, ip administered once daily for 22 days by Western blot analysis; assay type: functional, organism-based; conditions: time 22.0 day
[10] = tested on: MDA-MB-231; assay: Inhibition of DNA repair activity in human MDA-MB-231 cells assessed as inhibition of NHEJ activity measured every 12 hrs for 72 hrs by luciferase based host cell reactivation assay; assay type: functional
[11] = tested on: MDA-MB-231; assay: Induction of apoptosis in human MDA-MB-231 cells assessed as increase in cleaved caspase 3 level incubated for 72 hrs by Western blot analysis; assay type: functional, cell-based; conditions: dose 2.5-10 µM, DDE = dose-dependent effect
[12] = tested on: MDA-MB-468; assay: Induction of DNA damage in human MDA-MB-468 cells assessed as decrease in PARP-1 mRNA level at 2.5 to 10 uM incubated for 72 hrs by RT-PCR analysis; assay type: functional, cell-based; conditions: dose 2.5-10 µM
[13] = biological target: T1, Fatty acid synthase (Homo sapiens, UniProt P49327); assay: Inhibition of FASN in human MDA-MB-231 cells overexpressing FASN assessed as decrease in endogenous FFA level at IC50 concentration incubated for 72 hrs; assay type: cell-based
Target sequence in this assay (P49327 whole entry, looked up): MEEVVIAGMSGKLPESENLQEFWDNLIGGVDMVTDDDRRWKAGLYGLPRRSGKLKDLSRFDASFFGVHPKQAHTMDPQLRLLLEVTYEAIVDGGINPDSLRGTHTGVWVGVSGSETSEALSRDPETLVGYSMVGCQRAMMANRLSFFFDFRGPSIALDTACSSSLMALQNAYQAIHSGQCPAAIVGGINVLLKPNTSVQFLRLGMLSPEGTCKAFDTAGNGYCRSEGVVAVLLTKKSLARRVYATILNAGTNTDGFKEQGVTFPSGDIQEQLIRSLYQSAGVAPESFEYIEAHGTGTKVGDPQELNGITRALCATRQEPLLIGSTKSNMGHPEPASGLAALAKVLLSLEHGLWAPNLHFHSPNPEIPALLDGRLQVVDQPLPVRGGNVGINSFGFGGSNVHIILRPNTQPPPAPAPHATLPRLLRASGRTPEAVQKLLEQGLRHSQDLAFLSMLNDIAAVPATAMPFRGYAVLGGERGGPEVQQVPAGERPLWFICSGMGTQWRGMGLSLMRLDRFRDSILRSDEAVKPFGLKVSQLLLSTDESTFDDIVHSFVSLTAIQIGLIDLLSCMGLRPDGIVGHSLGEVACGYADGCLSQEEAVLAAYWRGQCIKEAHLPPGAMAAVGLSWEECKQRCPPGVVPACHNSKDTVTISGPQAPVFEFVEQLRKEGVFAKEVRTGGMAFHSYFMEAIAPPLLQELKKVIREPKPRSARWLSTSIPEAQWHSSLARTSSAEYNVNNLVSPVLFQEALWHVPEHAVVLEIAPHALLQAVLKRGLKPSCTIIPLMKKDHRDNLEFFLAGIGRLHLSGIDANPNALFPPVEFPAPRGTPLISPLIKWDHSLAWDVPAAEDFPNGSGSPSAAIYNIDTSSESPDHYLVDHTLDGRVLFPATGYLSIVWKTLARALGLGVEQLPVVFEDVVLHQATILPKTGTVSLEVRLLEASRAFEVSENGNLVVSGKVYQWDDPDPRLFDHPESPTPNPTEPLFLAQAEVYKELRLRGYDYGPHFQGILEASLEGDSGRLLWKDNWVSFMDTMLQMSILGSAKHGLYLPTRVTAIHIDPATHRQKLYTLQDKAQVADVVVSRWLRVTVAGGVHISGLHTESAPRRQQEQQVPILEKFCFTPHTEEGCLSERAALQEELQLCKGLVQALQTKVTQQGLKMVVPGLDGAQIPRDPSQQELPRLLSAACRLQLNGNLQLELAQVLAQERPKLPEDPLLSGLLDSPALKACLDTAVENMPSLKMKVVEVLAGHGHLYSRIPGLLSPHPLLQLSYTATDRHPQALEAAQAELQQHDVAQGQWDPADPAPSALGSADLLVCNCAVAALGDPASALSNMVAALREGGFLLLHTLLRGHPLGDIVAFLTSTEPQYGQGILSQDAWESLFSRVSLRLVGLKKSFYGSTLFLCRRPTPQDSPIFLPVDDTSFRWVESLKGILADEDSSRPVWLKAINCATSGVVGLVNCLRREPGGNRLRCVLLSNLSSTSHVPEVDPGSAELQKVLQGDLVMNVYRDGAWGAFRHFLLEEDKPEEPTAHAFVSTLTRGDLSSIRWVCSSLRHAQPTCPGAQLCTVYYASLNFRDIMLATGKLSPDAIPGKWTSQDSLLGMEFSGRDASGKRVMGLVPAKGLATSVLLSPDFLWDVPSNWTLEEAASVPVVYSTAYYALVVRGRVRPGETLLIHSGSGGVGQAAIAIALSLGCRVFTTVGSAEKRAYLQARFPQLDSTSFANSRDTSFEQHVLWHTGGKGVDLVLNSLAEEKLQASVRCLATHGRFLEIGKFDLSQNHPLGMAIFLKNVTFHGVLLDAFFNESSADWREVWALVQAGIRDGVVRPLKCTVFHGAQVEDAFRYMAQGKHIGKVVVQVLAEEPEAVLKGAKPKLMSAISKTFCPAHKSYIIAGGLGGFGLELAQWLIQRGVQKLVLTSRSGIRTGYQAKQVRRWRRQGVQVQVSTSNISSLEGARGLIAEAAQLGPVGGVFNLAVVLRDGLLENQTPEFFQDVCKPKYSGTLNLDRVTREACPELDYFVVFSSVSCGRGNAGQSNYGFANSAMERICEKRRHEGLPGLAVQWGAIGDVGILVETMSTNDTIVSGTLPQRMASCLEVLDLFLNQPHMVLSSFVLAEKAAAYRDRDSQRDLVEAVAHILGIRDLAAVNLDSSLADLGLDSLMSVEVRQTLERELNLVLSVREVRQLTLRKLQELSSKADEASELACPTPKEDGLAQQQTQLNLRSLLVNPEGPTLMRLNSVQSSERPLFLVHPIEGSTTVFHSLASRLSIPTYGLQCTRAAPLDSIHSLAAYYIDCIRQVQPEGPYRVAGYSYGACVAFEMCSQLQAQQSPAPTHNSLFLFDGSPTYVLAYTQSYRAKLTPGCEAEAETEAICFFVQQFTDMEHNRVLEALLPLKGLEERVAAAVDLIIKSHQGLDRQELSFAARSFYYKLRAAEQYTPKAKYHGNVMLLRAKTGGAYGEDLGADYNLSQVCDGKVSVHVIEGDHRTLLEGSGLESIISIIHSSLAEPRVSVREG

[14] = tested on: MDA-MB-468; assay: Induction of apoptosis in human MDA-MB-468 cells assessed as increase in cleaved PARP1 level incubated for 72 hrs by Western blot analysis; assay type: functional, cell-based; conditions: dose 2.5-10 µM, DDE = dose-dependent effect
[15] = tested on: Mus musculus; assay: In vivo inhibition of […] in NSG mouse xenografted with human MDA-MB-231 cells assessed as reduction of PARP1 level in tumor at 100 mg/kg, ip administered once daily for 22 days by Western blot analysis; assay type: functional, organism-based; conditions: time 22.0 day
[16] = tested on: MDA-MB-231; assay: Antitumor activity against human MDA-MB-231 cells xenografted in NSG mouse assessed as reduction in tumor growth at 100 mg/kg, ip administered once daily for 22 days; assay type: functional, organism-based; conditions: time 22.0 day
[17] = tested on: HCC1937; assay: Antiproliferative activity against human HCC1937 cells assessed as reduction in cell survival incubated for 72 hrs by methylene blue cell survival assay; assay type: functional, cell-based
[18] = tested on: MDA-MB-468; assay: Induction of apoptosis in human MDA-MB-468 cells assessed as increase in cleaved caspase 3 level incubated for 72 hrs by Western blot analysis; assay type: functional, cell-based; conditions: dose 2.5-10 µM, DDE = dose-dependent effect
[19] = tested on: Mus musculus; assay: In vivo inhibition of […] in NSG mouse xenografted with human MDA-MB-231 cells assessed as reduction of FASN level in tumor at 100 mg/kg, ip administered once daily for 22 days by immunohistochemical analysis; assay type: functional, organism-based; conditions: time 22.0 day
[20] = tested on: MDA-MB-231; assay: Induction of DNA damage in human MDA-MB-231 cells assessed as inhibition of PARP-1 expression incubated for 72 hrs by Western blot analysis; assay type: functional, cell-based; conditions: dose 2.5-10 µM, DDE = dose-dependent effect
[21] = tested on: Mus musculus; assay: In vivo inhibition of […] in NSG mouse xenografted with human MDA-MB-231 cells assessed as reduction of FASN level in tumor at 100 mg/kg, ip administered once daily for 22 days by Western blot analysis; assay type: functional, organism-based; conditions: time 22.0 day
[22] = tested on: MDA-MB-468; assay: Antiproliferative activity against human MDA-MB-468 cells assessed as reduction in cell survival incubated for 72 hrs by methylene blue cell survival assay; assay type: functional, cell-based
[23] = tested on: MDA-MB-231; assay: Induction of apoptosis in human MDA-MB-231 cells at 10 uM incubated for 72 hrs by Annexin-V/PI staining based flow cytometric analysis; assay type: functional, cell-based
[24] = tested on: MDA-MB-436; assay: Antiproliferative activity against human MDA-MB-436 cells assessed as reduction in cell survival incubated for 72 hrs by methylene blue cell survival assay; assay type: functional, cell-based
[25] = tested on: MDA-MB-231; assay: Antitumor activity against human MDA-MB-231 cells xenografted in NSG mouse assessed as reduction in tumor wet weight at 100 mg/kg, ip administered once daily for 22 days; assay type: functional, organism-based; conditions: time 22.0 day
[26] = Induction of DNA damage in human KTB22 cells assessed as increase in gamma-H2AX level at IC50 concentration by Western blot analysis; assay type: toxicity, cell-based
[27] = tested on: MDA-MB-231; assay: Induction of DNA damage in human MDA-MB-231 cells assessed as increase in gamma-H2AX level measured after 72 hrs by Western blot analysis; assay type: functional, cell-based; conditions: dose 2.5-10 µM, DDE = dose-dependent effect
[28] = Induction of DNA damage in human KTB39 cells assessed as increase in gamma-H2AX level at IC50 concentration by Western blot analysis; assay type: toxicity, cell-based
[29] = tested on: MDA-MB-468; assay: Inhibition of DNA repair activity in human MDA-MB-468 cells assessed as inhibition of NHEJ activity measured every 12 hrs for 72 hrs by luciferase based host cell reactivation assay; assay type: functional
[30] = tested on: MDA-MB-468; assay: Induction of DNA damage in human MDA-MB-468 cells assessed as increase in gamma-H2AX level measured after 72 hrs by Western blot analysis; assay type: functional, cell-based; conditions: dose 2.5-10 µM, DDE = dose-dependent effect
[31] = tested on: Mus musculus; assay: In vivo inhibition of […] in NSG mouse xenografted with human MDA-MB-231 cells assessed as increase in gamma-H2AX level in tumor at 100 mg/kg, ip administered once daily for 22 days by immunohistochemical analysis; assay type: functional, organism-based; conditions: time 22.0 day
[32] = Induction of DNA damage in human KTB34 cells assessed as increase in gamma-H2AX level at IC50 concentration by Western blot analysis; assay type: toxicity, cell-based
[33] = tested on: MDA-MB-231; assay: Antiproliferative activity against human MDA-MB-231 cells assessed as reduction in cell survival incubated for 72 hrs by methylene blue cell survival assay; assay type: functional, cell-based
[34] = tested on: MDA-MB-468; assay: Induction of DNA damage in human MDA-MB-468 cells nucleus assessed as increase in gamma-H2AX punctate staining at 20 uM by DAPI staining based confocal microscopic imaging analysis; assay type: functional, cell-based
[35] = biological target: T1, Fatty acid synthase; assay: Inhibition of human FASN enoyl reductase activity using crotonyl CoA as substrate assessed as inhibition of substrate […] measured every 1 min for 10 mins in the presence of NADPH by fluorescence based assay
Target sequence in this assay (P49327 whole entry): as the sequence (P49327 whole entry, looked up) above

[36] = tested on: MDA-MB-231; assay: Induction of ROS production in human MDA-MB-231 cells measured after 2 hrs by fluorescence based assay; assay type: functional, cell-based
[37] = tested on: MDA-MB-468; assay: Induction of ROS production in human MDA-MB-468 cells measured after 2 hrs by fluorescence based assay; assay type: functional, cell-based

| SMILES | Activity [1] | Activity [2] | Activity [4] | inhibition [10] | Activity [12] | inhibition [13] | Activity [20] | Activity [26] | Activity [27] | Activity [28] | inhibition [29] | Activity [30] | Activity [32] | Activity [34] | other results |
| --- | --- | --- | --- | --- | --- | --- | --- | --- | --- | --- | --- | --- | --- | --- | --- |
| Cc1c(OCC(F)(F)F)ccnc1CSc1nc2ccc(O)cc2[nH]1 | Active | Dde | Active | Active | Active | Active | Dde | Toxic | Dde | Toxic | Active | Dde | Toxic | Active | inhibition [3]: Active; Activity [5]: Dde; Activity [6]: Active; Activity [7]: Non-Toxic; Activity [8]: Active; inhibition [9]: Active; Activity [11]: Dde; Activity [14]: Dde; inhibition [15]: Active; Activity [16]: Active; Activity [17]: Active; Activity [18]: Dde; inhibition [19]: Active; inhibition [21]: Active; Activity [22]: Active; Activity [23]: Active; Activity [24]: Active; Activity [25]: Active; inhibition [31]: Active; Activity [33]: Active |
| Cc1c(OCC(F)(F)F)ccnc1C[S+]([O-])c1nc2ccccc2[nH]1 (stereo unspecified) [LANSOPRAZOLE] | Active | Dde | Active | Active | Active | Active | Dde | Toxic | Dde | Toxic | Active | Dde | Toxic | Active | Ki [35]: 1700 nM |
| CC1=CC(=O)c2ccccc2C1=O | – | – | – | – | – | – | – | – | – | – | – | – | – | – | Activity [36]: Active; Activity [37]: Active |
